This is an account of results in patent publication US11672797B2, “Methods of treating keloids” (Hampton University, priority 2019, dated 2023).

Holding throughout (type): cell-based, human
In experiment [1] the test system is Keloid fibroblast (KF) cells (CRL1762). As to the kind of experiment: Example 2: phalloidin / DAPI staining of keloid fibroblasts, 10,000 cells per well. The conditions noted are these: 16 hours. The method, then: (§1) Keloid fibroblast (KF) cells (CRL1762) and normal skin fibroblasts (NF, CRL2439) were both purchased from the American Type Culture Collection (ATCC, Manassas, Va.). This assay compared the effects of KC7F2 versus the glycolytic inhibitor 2-DG on the cellular consequences of HIF-1 functional blockade.
For each human skin fibroblast, 10,000 cells were plated per well. Each well was treated and incubated for 16 hours with the following: Control, no chemical treatment; 40 μM KC7F2; 10 mM 2-deoxyglucose (2-DG), a glycolysis inhibitor; and both 40 μM KC7F2 and 10 mM 2-DG. Cells were stained with phalloidin for filamentous actin and cells were labelled DAPI (4′,6-diamidino-2-phenylindolepropridium iodide) to indicate dying cells. Images were taken at a magnification of 4 times (4×) and 10 times (10×).

Experiment [2] has the same test system. As to the kind of experiment: Example 3: phalloidin / DAPI staining of keloid fibroblasts, 20,000 cells per well. The conditions noted are these: 16 hours. As for the experimental part:
as §1
For each human skin fibroblast, 20,000 cells, were plated per well. Each well was treated and incubated for 16 hours with the following: Control, no chemical treatment; 40 μM KC7F2; 10 mM 2-deoxyglucose (2-DG), a glycolysis inhibitor; and both 40 μM KC7F2 and 10 mM 2-DG. Cells were stained with phalloidin for filamentous actin and cells were labelled DAPI (4′,6-diamidino-2-phenylindolepropridium iodide) to indicate dying cells. Images were taken at a magnification of 4 times (4×) and 10 times (10×).

Experiment [3] has the same test system. As to the kind of experiment: Example 1: Hoechst / propidium iodide staining of keloid fibroblasts after 16 h treatment. The conditions noted are these: for number of KF cells: 40 μM KC7F2, 25 uM IDF-11774, 25 uM PX-478, 10 mM 2-DG, compared to control untreated cells, FIGS. 4A-B.

As to `O=S(=O)(NCCSSCCNS(=O)(=O)c1cc(Cl)ccc1Cl)c1cc(Cl)ccc1Cl` [KC7F2], the “number of KF cells” value in experiment [1] (40 μM KC7F2, FIGS. 5A, 6A) is “reduced the number of KF cells consistently and the best”; in experiment [2] (40 μM KC7F2, FIGS. 7A, 8A) it was “reduced the number of KF cells consistently and the best”; in experiment [3], “reduced the number of KF cells consistently and the best”.

For the molecule `CN1CCN(C(=O)COc2ccc(C34CC5CC(CC(C5)C3)C4)cc2)CC1` [IDF-11774, 2-(4-((3r,5r,7r)-adamantan-1-yl)phenoxy)-1-(4-methylpiperazin-1-yl)ethan-1-one], the “number of KF cells” value in experiment [3] was “worked less well, but showed the same trend”.

`O=CC[C@@H](O)[C@H](O)[C@H](O)CO` [2-DG, 2-deoxyglucose]: the proliferation result in experiment [1] (10 mM 2-DG alone), in experiment [2] (10 mM 2-DG alone) and in experiment [3] (10 mM 2-DG alone) was “insufficient to impede proliferation to an appreciable amount” each time.
